According to patent publication US10479793B2, “Imidazopyridazine compounds useful as modulators of IL-12, IL-23 and/or IFN alpha responses” (BRISTOL-MYERS SQUIBB COMPANY, priority 2015, dated 2019):
Like-named read-outs stand apart in the source and are kept apart here.

Assays:
[1] = tested on: IFNα stimulated Kit225 T cells with a stably-integrated STAT-dependent luciferase reporter; assay: Kit225 T cell assay, IFNα stimulated STAT-dependent luciferase reporter; type: cell-based, human
Procedure: (§1) Kit225 T cells with a stably-integrated STAT-dependent luciferase reporter were plated in RPMI (GIBCO) containing 10% heat-inactivated FBS (GIBCO) and 100 U/mL PenStrep (GIBCO). The cells were then stimulated with either 20 ng/mL human recombinant IL-23 or 200 U/mL human recombinant IFNα (PBL InterferonSource) for 5-6 hours. Luciferase expression was measured using the STEADY-GLO Luciferase Assay System (PROMEGA) according to the manufacturer's instructions.

[2] = target: T1, recombinantly expressed His-tagged protein corresponding to amino acids 575-869 of human Tyk2 (Homo sapiens, UniProt P29597); assay: Probe displacement assay (scintillation proximity, tritiated probe); type: binding; details: His-tagged Tyk2 (575-869) 2.5 nM, 40 nM radiolabeled probe, 30 minutes at room temperature
T1 construct: made in house
Procedure: The preparation of radiolabeled probe, (R)—N-(1-(3-(8-methyl-5-(methylamino)-8H-imidazo[4,5-d]thiazolo[5,4-b]pyridin-2-yl)phenyl)ethyl)-2-([^3H]methylsulfonyl)benzamide, was performed as described below: […]

[3] = tested on: IL-23 stimulated Kit225 T cells with a stably-integrated STAT-dependent luciferase reporter; assay: Kit225 T cell assay, IL-23 stimulated STAT-dependent luciferase reporter; type: cell-based, human
Procedure: as §1

[4] = Homo sapiens, KIT225, 200 U/mL human recombinant IFNα, 5-6 hours, luciferase, read-out: IFNa Kit225 Reporter, (IC50)
[5] = Homo sapiens, KIT225, 20 ng/mL human recombinant IL-23, 5-6 hours, luciferase, read-out: IL-23 Kit225 Reporter, (IC50)
[6] = Homo sapiens, KIT225, read-out: IFNa Kit225 Reporter, (IC50, uM)
[7] = KIT225, 200 U/mL human recombinant IFNα, 5-6 hours, luciferase, read-out: IFNa Kit225 Reporter, (IC50)
[8] = KIT225, 20 ng/mL human recombinant IL-23, 5-6 hours, luciferase, read-out: IL-23 Kit225 Reporter, (IC50)

T1 sequence (P29597 with tags, fused parts or gaps): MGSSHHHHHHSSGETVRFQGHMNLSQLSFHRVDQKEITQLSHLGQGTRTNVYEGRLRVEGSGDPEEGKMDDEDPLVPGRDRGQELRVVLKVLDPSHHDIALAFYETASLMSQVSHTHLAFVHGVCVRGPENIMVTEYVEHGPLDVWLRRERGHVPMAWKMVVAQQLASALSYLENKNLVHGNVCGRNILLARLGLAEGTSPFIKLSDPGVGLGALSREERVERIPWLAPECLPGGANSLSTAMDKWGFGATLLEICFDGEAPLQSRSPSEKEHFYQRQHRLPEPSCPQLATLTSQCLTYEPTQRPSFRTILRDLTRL

SMILES | IC50 [1, 4] | EC50 [2] | IC50 [3, 5] | IC50 [1, 6] | IC50 ([3]; Homo sapiens, KIT225, read-out: IL-23 Kit225 Reporter, (IC50, uM)) | IC50 [1, 7] | IC50 [3, 8]
CNc1cc(Nc2cc(C)cc(F)c2)nn2c(C(=O)NC3CC3)cnc12 [Example 2] | 0.03 µM | 0.00324 µM | 0.03 µM |  |  |  | 
CNc1cc(Nc2cc(C)cc(F)c2)nn2c(C(=O)N3CCC3)cnc12 [Example 3] |  | 0.06 µM |  | 1.92 µM | 2.82 µM |  | 
CNc1cc(Nc2cc(F)cc(C(F)(F)F)c2)nn2c(C(=O)NC3CCC3)cnc12 [Example 4] | 0.32 µM | 0.00685 µM | 0.81 µM |  |  |  | 
CNc1cc(Nc2cccc(OC(F)(F)F)c2)nn2c(C(=O)NC3CCC3)cnc12 [Example 5] | 0.5 µM | 0.00729 µM | 0.5 µM |  |  |  | 
CNc1cc(Nc2cc(F)ccc2F)nn2c(C(N)=O)cnc12 [Example 6] |  | 0.00421 µM |  |  |  | 0.09 µM | 0.12 µM
CNc1cc(Nc2cc(C)cc(C)c2)nn2c(C(=O)N3CC(O)C3)cnc12 [Example 7] | 3.3 µM | 0.25 µM |  |  |  |  | 
CNc1cc(Nc2cc(F)ccc2F)nn2c(C(=O)NC3CC3)cnc12 [Example 8] | 0.03 µM | 0.00361 µM | 0.03 µM |  |  |  | 
CNc1cc(Nc2cc(C)cc(F)c2)nn2c(C(=O)NCC(C)(C)O)cnc12 [Example 9] | 0.17 µM | 0.00591 µM | 0.25 µM |  |  |  | 
CNc1cc(N2CCc3ccccc32)nn2c(C(=O)NC3CCC3)cnc12 [Example 10] |  | 0.00757 µM |  |  |  | 0.08 µM | 0.16 µM
CNc1cc(N2CCc3ccccc32)nn2c(C(=O)NCC(C)(C)O)cnc12 [Example 11] |  | 0.09 µM |  |  |  | 2.27 µM | 2.9 µM
CNc1cc(Nc2cc(F)cc(F)c2F)nn2c(C(=O)NC3CC3)cnc12 [Example 13] | 0.03 µM | 0.00297 µM | 0.05 µM |  |  |  | 
CNc1cc(Nc2cc(F)cc(F)c2F)nn2c(C(=O)NCC(C)(C)O)cnc12 [Example 14] |  | 0.00703 µM |  |  |  | 0.26 µM | 0.37 µM
CNc1cc(Nc2cc(F)cc(F)c2)nn2c(C(=O)NCC(C)(C)CO)cnc12 [Example 15] |  | 0.02 µM |  |  |  | 0.4 µM | 0.56 µM
CNc1cc(Nc2cc(F)cc(F)c2OC)nn2c(C(=O)NCC(C)(C)C)cnc12 [Example 16] |  | 0.00704 µM |  |  |  | 0.09 µM | 0.24 µM
CNc1cc(Nc2cc(F)cc(F)c2F)nn2c(C(=O)NCC(C)(C)CO)cnc12 [Example 18] |  | 0.00372 µM |  |  |  | 0.01 µM | 0.04 µM
CNc1cc(Nc2c(F)c(F)cc(F)c2F)nn2c(C(N)=O)cnc12 [Example 19] |  | 0.00586 µM |  |  |  | 0.17 µM | 0.27 µM
CNc1cc(Nc2c(F)c(F)cc(F)c2F)nn2c(C(=O)NC3CC3)cnc12 [Example 20] | 0.05 µM | 0.00397 µM | 0.06 µM |  |  |  | 
CNc1cc(Nc2c(F)c(F)cc(F)c2F)nn2c(C(=O)NCC(C)(C)O)cnc12 [Example 21] |  | 0.03 µM |  |  |  | 0.21 µM | 0.39 µM
CNc1cc(Nc2ccccn2)nn2c(C(=O)N[C@@H]3C[C@@H]3F)cnc12 [Example 22] | 0.18 µM | 0.00546 µM | 0.25 µM |  |  |  | 
CNc1cc(Nc2cccc(-c3ccc(OC(F)(F)F)cc3)n2)nn2c(C(=O)NC3(C#N)CC3)cnc12 [Example 23] |  | 0.04 µM |  |  |  | 0.66 µM | 0.42 µM
CNc1cc(Nc2cccnc2OC)nn2c(C(=O)NC3(C#N)CC3)cnc12 [Example 24] |  | 0.00725 µM |  |  |  | 0.05 µM | 0.04 µM
CNc1cc(Nc2cccnc2OC)nn2c(C(=O)NCCO)cnc12 [Example 25] |  | 0.00605 µM |  |  |  | 0.09 µM | 0.05 µM
CNc1cc(Nc2cccnc2OC)nn2c(C(=O)NCCF)cnc12 [Example 26] |  | 0.00293 µM |  |  |  | 0.06 µM | 0.09 µM

SMILES | IC50 [1, 4] | EC50 [2] | IC50 [3, 5] | IC50 [1, 6] | IC50 ([3]; Homo sapiens, KIT225, read-out: IL-23 Kit225 Reporter, (IC50, uM)) | IC50 [1, 7] | IC50 [3, 8]
CNc1cc(Nc2cccnc2OC)nn2c(C(=O)NC3CCC3)cnc12 [Example 27] | 0.01 µM | 0.0027 µM | 0.04 µM |  |  |  | 
CNc1cc(Nc2cccnc2-n2cccn2)nn2c(C(=O)NC3CCCC3O)cnc12 (stereo not shown) [Example 28] |  | 0.06 µM |  |  |  | 0.45 µM | 0.33 µM
CNc1cc(Nc2cccnc2-n2cccn2)nn2c(C(=O)NC(C)CO)cnc12 (stereo not shown) [Example 29] |  | 0.04 µM |  |  |  | 0.41 µM | 0.27 µM
CNc1cc(Nc2cccnc2-n2cccn2)nn2c(C(=O)NCCO)cnc12 [Example 30] |  | 0.02 µM |  |  |  | 0.21 µM | 0.35 µM
CNc1cc(Nc2cccnc2-n2cccn2)nn2c(C(=O)NCC(C)(C)O)cnc12 [Example 31] |  | 0.13 µM |  |  |  | 2.58 µM | 0.58 µM
CNc1cc(Nc2cccnc2-n2cccn2)nn2c(C(=O)N[C@@H](C)CO)cnc12 [Example 32] |  | 0.05 µM |  |  |  | 0.31 µM | 0.54 µM
N#Cc1cc(Nc2cc(NC3CC3)c3ncc(C(=O)NC4CC4)n3n2)cc(C(F)(F)F)c1 [Example 33] |  | 0.19 µM |  |  |  | 12.5 µM | 12.5 µM
N#Cc1cc(Nc2cc(NC3CC3)c3ncc(C(=O)NCCO)n3n2)cc(C(F)(F)F)c1 [Example 35] |  | 0.16 µM |  |  |  | 8.48 µM | 8.07 µM
CCNC(=O)c1cnc2c(NC3CC3)cc(Nc3cc(C#N)cc(C(F)(F)F)c3)nn12 [Example 36] |  | 0.35 µM |  |  |  | 12.5 µM | 3.33 µM
Cc1cc(F)cc(Nc2cc(NC3CC3)c3ncc(C(=O)NC4CC4)n3n2)c1 [Example 38] | 0.58 µM | 0.02 µM | 0.79 µM |  |  |  | 
O=C(NC1CCC1)c1cnc2c(NC3CC3)cc(Nc3cc(F)cc(F)c3F)nn12 [Example 44] |  | 0.06 µM |  |  |  | 1.39 µM | 1.46 µM
NC(=O)c1cnc2c(NC3CC3)cc(Nc3cccc(F)c3)nn12 [Example 47] |  | 0.04 µM |  |  |  | 1.13 µM | 1.12 µM
Cc1cc(C)cc(Nc2cc(NCCCN(C)C)c3ncc(C(N)=O)n3n2)c1 [Example 50] |  | 0.07 µM |  |  |  | 1.28 µM | 2.32 µM
Cc1cc(C)cc(Nc2cc(NCC3CC3)c3ncc(C(N)=O)n3n2)c1 [Example 51] |  | 0.07 µM |  |  |  | 2.9 µM | 3.74 µM
Cc1cc(C)cc(Nc2cc(NCCO)c3ncc(C(N)=O)n3n2)c1 [Example 52] |  | 0.07 µM |  |  |  | 12.8 µM | 7.04 µM
Cc1cc(C)cc(Nc2cc(NCC(C)C)c3ncc(C(N)=O)n3n2)c1 [Example 53] |  | 0.2 µM |  |  |  | 12.4 µM | 9.72 µM
CCCNc1cc(Nc2cc(C)cc(C)c2)nn2c(C(N)=O)cnc12 [Example 54] |  | 0.03 µM |  |  |  | 1.17 µM | 1.25 µM
CCCCCNc1cc(Nc2cc(C)cc(C)c2)nn2c(C(N)=O)cnc12 [Example 55] |  | 0.08 µM |  |  |  | 3.62 µM | 2.38 µM
CNc1cc(Nc2cccnc2-n2ccc(C(F)(F)F)n2)nn2c(C(=O)NC3CC3)cnc12 [Example 99] |  | 0.57 µM |  |  |  |  | 
CNc1cc(Nc2cccnc2C(=O)NCCOC)nn2c(C(=O)NC3CC3)cnc12 [Example 108] |  | 0.00759 µM |  |  |  |  | 
CNc1cc(Nc2cccc(-c3ccc(C(F)(F)F)cc3F)c2)nn2c(C(=O)NC[C@@](C)(O)CO)cnc12 [Example 113] |  | 0.00762 µM |  |  |  |  | 0.75 µM
CNc1cc(Nc2cc(C)cc(C)c2)nn2c(C(=O)NC3CC3)cnc12 [Example 114] |  |  |  | 0.1 µM |  |  | 
